Experiments:
[1] = target: nicotinic receptor (nAChR) found in H. azteca; experiment: competitive [3H]imidacloprid displacement, filtration; format: binding, Hyalella azteca; conditions: 1 nM [3H]IMI, pH 7.0, 20 °C, crude microsomes 100 μg/mL
[2] = target: nicotinic receptor (nAChR) found in C. dilutus; experiment: as above; format: binding, Chironomus dilutus; conditions: 1 nM [3H]IMI, pH 7.0, 20 °C, crude microsomes 100 μg/mL

## O=[N+]([O-])N=C1NCCN1Cc1ccc(Cl)nc1 [imidacloprid]
[1]
  IC50: 8.86 nM
[2]
  IC50: 8.04 nM

— article PMC8892843 (The Science of the total environment, 2021)
